Among the test systems are A549 NSCLC; EKVX NSCLC; HT29 colon; KM12 colon; M14 melanoma; RPMI-8226 leukemia; SF-295 CNS; SNB-75 CNS; SW-620 colon; TK-10 renal.
Assay in all cases: NCI anticancer screen, dose series, 48 h

In PubChem BioAssay (NCI) one finds TGI and GI50 data, which are given here for 15 molecules.

Values joined by “and” are separate entries in the source; they are usually repeats but may differ in a detail not shown here. Equal entries are not always repeated.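 Following 48 hours of exposure in 96-well plates, responses at five concentrations were used to interpolate endpoints linearly. Abbreviation: GI50, concentration required for 50% inhibition of growth. TGI: total growth inhibition.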

Consider `O=CC(O)C(O)C(O)COc1cc(CO)cc2c1C(=O)c1ccccc1C2=O` (configuration not stated), for which the TGI in the assay on A549 NSCLC, in the assay with EKVX NSCLC, in the assay on HT29 colon, in the assay on KM12 colon, with M14 melanoma and in the assay with RPMI-8226 leukemia was above 100 µM in each case. The TGI in the assay on SF-295 CNS, in the assay with SNB-75 CNS, in the assay with SW-620 colon and in the assay on TK-10 renal was above 100 µM in each case.

For `C/C(=C\CNc1ncnc2nc(Cl)[nH]c12)CO`, the TGI in the assay with A549 NSCLC, in the assay on EKVX NSCLC, in the assay on HT29 colon, with KM12 colon, in the assay with M14 melanoma and in the assay on RPMI-8226 leukemia was above 100 µM throughout. Besides, the TGI in the assay with SF-295 CNS, in the assay on SNB-75 CNS, in the assay on SW-620 colon and in the assay with TK-10 renal was above 100 µM in each case.

Take `CN(C)C/C=C(/c1ccc(Br)cc1)c1cccnc1`: the TGI in the assay with A549 NSCLC is above 100 µM; in the assay with EKVX NSCLC it was above 100 µM; with HT29 colon it was above 100 µM; with KM12 colon, above 100 µM; in the assay with M14 melanoma, 37.2 µM; in the assay with RPMI-8226 leukemia, above 100 µM. The TGI in the assay on SF-295 CNS is 63.5 µM; in the assay with SNB-75 CNS, above 100 µM; in the assay with SW-620 colon, above 100 µM; with TK-10 renal, above 100 µM.

Regarding `O=c1oc2c(ccc3occc32)c(N2CCCCC2)c1-c1ccccc1`, the TGI in the assay on A549 NSCLC, in the assay on EKVX NSCLC, with HT29 colon, with KM12 colon, with SF-295 CNS and with SNB-75 CNS was above 100 µM in each case. In the assay with SW-620 colon, the TGI was above 100 µM.

For the molecule `CCN(CC)/[N+]([O-])=N/OC`, the TGI in the assay on A549 NSCLC, with EKVX NSCLC, with HT29 colon, in the assay with KM12 colon, in the assay on M14 melanoma and with SF-295 CNS was above 100 µM each time. Moreover, the TGI with SW-620 colon and in the assay on TK-10 renal was above 100 µM each time.

Turning to `CCOC(=O)C(=CNC(Cc1c[nH]c2ccccc12)C(=O)OC)C(=O)OCC` (configuration not stated), the TGI with EKVX NSCLC, in the assay on HT29 colon, in the assay with M14 melanoma, with RPMI-8226 leukemia, with SF-295 CNS and with SNB-75 CNS was above 100 µM throughout. Moreover, the TGI in the assay on SW-620 colon and in the assay with TK-10 renal was above 100 µM throughout.

In the case of `CC(C)(C)OC(=O)N1C(C2=COc3ccccc3O2)=COc2cccnc21`, the TGI in the assay on A549 NSCLC amounted to 4.38 µM; with EKVX NSCLC, 4.03 µM; in the assay on HT29 colon, 5.8 µM; with KM12 colon, 3.97 µM; in the assay with M14 melanoma it was 3.65 µM; in the assay with RPMI-8226 leukemia, 4.43 µM. Further, the TGI in the assay on SF-295 CNS worked out at 3.99 µM; in the assay on SNB-75 CNS, 29.2 µM; with SW-620 colon it was 4.56 µM; with TK-10 renal it was 7.72 µM.

With `NCCCCN`, the TGI was above 100 µM in the assay with A549 NSCLC; above 100 µM in the assay on EKVX NSCLC; above 100 µM in the assay with HT29 colon; 38.6 µM in the assay with KM12 colon; above 100 µM in the assay with M14 melanoma; above 100 µM in the assay on SF-295 CNS. Moreover, the TGI in the assay on SNB-75 CNS, in the assay on SW-620 colon and in the assay with TK-10 renal was above 100 µM throughout.

With `Cn1c2c(c3c(=O)[nH]ncc31)CCc1ccccc1-2`, the TGI is above 100 µM in the assay with A549 NSCLC; above 100 µM with EKVX NSCLC; above 100 µM in the assay on HT29 colon; 54.9 µM with KM12 colon; 41.7 µM in the assay with M14 melanoma; 67.4 µM in the assay with RPMI-8226 leukemia. Besides, the TGI in the assay with SF-295 CNS was above 100 µM; in the assay with SNB-75 CNS, 87.8 µM; with SW-620 colon it was above 100 µM; with TK-10 renal it was 45.3 µM.

For the molecule `COC(=N)C(C)C`, the TGI in the assay on A549 NSCLC, with HT29 colon, in the assay on KM12 colon, in the assay on M14 melanoma, in the assay on RPMI-8226 leukemia and in the assay with SF-295 CNS was above 100 µM in each case. Also, the TGI in the assay with SNB-75 CNS, in the assay with SW-620 colon and in the assay with TK-10 renal was above 100 µM in each case.

With `NC(N)=NS(=O)(=O)c1ccc(Nc2c3ccccc3nc3c(C(=O)N4CCN(CCO)CC4)ccc(Cl)c23)cc1`, the TGI with A549 NSCLC, in the assay on HT29 colon, in the assay with KM12 colon, in the assay with M14 melanoma, with RPMI-8226 leukemia and in the assay with SF-295 CNS was above 100 µM throughout. Besides, the TGI with SNB-75 CNS and in the assay with TK-10 renal was above 100 µM each time.

For `C=C1CCCC(C)(C)[C@@H]1CC/C(C)=C/Cn1c2cccc(=O)c-2nc2ccccc21`, the GI50 in the assay with A549 NSCLC was 20.9 µM; in the assay with HT29 colon, 3.82 µM; with KM12 colon it was 7.96 µM; in the assay with RPMI-8226 leukemia it was 3.06 µM; in the assay on SF-295 CNS it was 3.93 µM; with SNB-75 CNS, 2.09 µM. Further, in the assay with SW-620 colon, the GI50 was 5.87 µM. The TGI is 11.4 µM with EKVX NSCLC; 27.4 µM and 3.29 µM with HT29 colon; 45.4 µM and 10.4 µM in the assay with KM12 colon; 9.68 µM and 17.8 µM in the assay with RPMI-8226 leukemia; 26.9 µM and 4.16 µM with SF-295 CNS; 4.54 µM and 5.04 µM with SNB-75 CNS.

As to `O=C(N/N=C\c1ccc([N+](=O)[O-])cc1)Nc1ccccc1`, the TGI in the assay on HT29 colon, in the assay with KM12 colon, in the assay with M14 melanoma, in the assay on RPMI-8226 leukemia, in the assay with SF-295 CNS and in the assay with SNB-75 CNS was above 100 µM throughout. The TGI in the assay on SW-620 colon and in the assay on TK-10 renal was above 100 µM throughout.

As to `CCOc1cc(NC(C)=O)ccc1C(=O)N/N=C/c1ccco1`, the TGI in the assay on EKVX NSCLC, in the assay with HT29 colon, in the assay with KM12 colon, with RPMI-8226 leukemia, with SF-295 CNS and with SNB-75 CNS was above 100 µM in each case. Besides, the TGI in the assay on SW-620 colon and in the assay on TK-10 renal was above 100 µM throughout.

With `O=P(O)(O)OP(=O)(O)O`, the TGI in the assay with A549 NSCLC, with EKVX NSCLC, with HT29 colon, in the assay with KM12 colon, with M14 melanoma and in the assay with RPMI-8226 leukemia was above 100 µM each time. Moreover, the TGI in the assay on SNB-75 CNS, in the assay with SW-620 colon and with TK-10 renal was above 100 µM in each case.
